Data: patent EP1336412A1, “Combinations of an antibiotic and a murein hydrolase inhibitor” (priority 2002, dated 2003)

What was measured:
[1] = system: bacterial cells following the inhibition of the cleavage of the bacterial murein septum; assay: Sensitivity of bacterial cells to detergents and high molecular weight antibiotics after inhibition of murein septum cleavage; format: cell-based
[2] = system: E. coli MHD52 (deletion of AmiABC); assay: Growth of E. coli with inhibited murein septum cleavage (MHD52) after addition of agent; format: cell-based, Escherichia coli; conditions: LB medium, 37°C, aerobic
Description: (§1) Bacteria were cultivated aerobically at 37° C in LB medium (J.H. Miller, Experiments in Molecular Genetics, Cold Spring Harbor Laboratory, Cold Spring Harbor (1972)). Agar plates contained 1.5 % agar (Gibco BRL, Paisley, Scotland). Growth was monitored by optical density readings at 578 nm in an Eppendorf photometer (Eppendorf, Hamburg, Germany). Antibiotics were used at the following concentrations: 50 (µg/ml ampicillin (amp), 50 (µg/ml kanamycin (kan), 20 (µg/ml chloramphenicol (cm) and 12.5 µg/ml tetracyclin (tet).
(§2) At the indicated time point (arrow) deoxycholate (1 g/l) or crystal violet (1 mg/l), respectively, were added. See the results in Fig. 4 (filled circles: wild type E. coli plus deoxycholate; filled triangles: MHD52 plus crystal violet; filled squares: MHD52 plus deoxycholate). Likewise, the cells were grown in the same manner, but at the indicated time point (arrow) vancomycin (20 µg/ml) was added. See the results in Fig. 5 (open circles: wild type E. coli; filled circles: wild type E. coli plus vancomycin; open squares: MHD52; filled squares: MHD52 plus vancomycin).

wild-type E. coli MC1061 = assay: Growth of wild-type E. coli after addition of agent; format: cell-based, Escherichia coli; conditions: vancomycin 20 µg/ml; LB medium, 37°C, aerobic; wild type (septum cleavage not inhibited)
Description: as §1, §2

Molecule	sensitivity of bacterial cells [1]	also measured
ramoplanin	significant increase in the sensitivity	–
Triton X100	significant increase in the sensitivity	–
CN[C@H](CC(C)C)C(=O)N[C@H]1C(=O)N[C@@H](CC(N)=O)C(=O)N[C@H]2C(=O)N[C@H]3C(=O)N[C@H](C(=O)N[C@H](C(=O)O)c4cc(O)cc(O)c4-c4cc3ccc4O)[C@H](O)c3ccc(c(Cl)c3)Oc3cc2cc(c3O[C@@H]2O[C@H](CO)[C@@H](O)[C@H](O)[C@H]2O[C@H]2C[C@](C)(N)[C@H](O)[C@H](C)O2)Oc2ccc(cc2Cl)[C@H]1O [vancomycin]	–	effect on growth (Fig. 5) ([2]; vancomycin 20 µg/ml, MHD52 (septum cleavage inhibited)): growth controlling effect; effect on growth (Fig. 5) (wild-type E. coli MC1061): normal growth
CN(C)c1ccc(C(=C2C=CC(=[N+](C)C)C=C2)c2ccc(N(C)C)cc2)cc1 [crystal violet]	–	effect on growth (Fig. 4) ([2]; crystal violet 1 mg/l, MHD52): insignificant effect
mersacidin	significant increase in the sensitivity	–
